Assay [1] deals with thoracic aorta of the marmot. The experiment in a line: Magnus test using a blood vessel removed from a marmot. To be noted: 20 μM of test compound; FIG. 2. The method, then:
An incision was made in the thoracic region of a marmot (slc/Harley, male, 11-12 weeks of age) under anesthesia, and the thoracic aorta of the marmot was removed. The vascular endothelium was removed using a thread, after which the blood vessel was cut into a round slice having a width of approximately 2 mm and fixed to a fixing rod using thread or a stainless steel hook, and placed in a 10 mL Magnus tube maintained at a temperature of 37° C. and saturated with a 95% O2/5% CO2 gas mixture, and a tension of 1 g was placed on the blood vessel. When the tension on the specimen became stable, phenylephrine (phenylephrine hydrochloride, PHE, manufactured by Sigma-Aldrich Japan, final concentration: 3×10^−6 mol/L) was added thereto to cause the specimen to contract, the test compound or a solvent was added when the contraction became stable, the IP agonist beraprost (beraprost sodium, manufactured by Cayman Chemical) was cumulatively added after 15 minutes to give a final concentration of 1 nM to 1000 nM, and the change in relaxation response was recorded.
The contraction inhibition rate for each set of data was calculated using a contraction rate of 100% as the control (DMSO addition).

In assay [2] the target is T1, human PGI2 receptors (hIP) (Homo sapiens, UniProt P43119).
T1 construct: expressed in transfected cells; host or cells: CHO-K1
In words: Method C: effect on epoprostenol-cAMP production curve in CHO/hIP cells (left shift value). To be noted: Table 4, concentration of test compound that halves the EC50 of epoprostenol. The class given is cell-based. On the technique in general: cAMP levels reflect the balance of adenylyl cyclase and phosphodiesterase activity.

Assay [3] addresses T1, human PGI2 receptors (hIP). The experiment in a line: Method D: effect on cAMP production in human aortic smooth muscle cells (left shift value). Format: cell-based. Conditions: concentration of test compound that halves the EC50 of epoprostenol. The method, then: The effect of a test compound on the cAMP production curve with respect to the IP agonist epoprostenol (manufactured by GlaxoSmithKline) was investigated using human aortic smooth muscle cells known to express human PGI2 receptors (hIP).
An amount of 5 μL of a mixture (diluted in F-12 culture medium (manufactured by GIBCO) including 0.1% BSA) of epoprostenol dissolved in DMSO and a test compound dissolved in DMSO was dispensed in advance into a 384-well black microplate, and 5 μL of CHO/hIP cells suspended at a concentration of 1.4×10^6 cells/mL in F-12 culture medium including 0.1% BSA were added to the microplate. After 40 minutes of incubation at room temperature, the amount of cAMP was measured using a cAMP assay kit (cAMP HiRange, manufactured by Cisbio Bioassays). Specifically, 5 μL of a cAMP-d2 solution (including a cell lysate) from the kit were added and the reaction was stopped, then 5 μL of a fluorescence-labeled cAMP antibody solution from the kit were added and incubation was performed for 1 hour at room temperature, after which fluorescence was measured using a PHERAstar plate reader (manufactured by BMG) in HTRF (registered trademark) mode. The amount of cAMP in each well was calculated from a cAMP calibration curve obtained using a standard sample, and an epoprostenol-cAMP production curve for the presence of various concentrations of the test compound was created. […]

T1 sequence (P43119 whole entry): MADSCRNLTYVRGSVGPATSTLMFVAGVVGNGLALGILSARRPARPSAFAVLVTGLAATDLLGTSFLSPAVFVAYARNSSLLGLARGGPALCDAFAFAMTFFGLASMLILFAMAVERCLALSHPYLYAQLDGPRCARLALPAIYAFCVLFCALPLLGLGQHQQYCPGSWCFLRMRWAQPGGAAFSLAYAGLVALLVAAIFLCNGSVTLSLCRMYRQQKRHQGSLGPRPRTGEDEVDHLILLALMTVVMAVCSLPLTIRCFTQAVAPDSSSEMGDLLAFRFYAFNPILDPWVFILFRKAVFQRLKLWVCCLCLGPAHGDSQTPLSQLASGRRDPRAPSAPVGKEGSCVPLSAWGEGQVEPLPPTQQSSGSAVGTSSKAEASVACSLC

Consider `COc1ccccc1C(c1nnnn1C(C)(C)C)N1CCc2ccccc2C1` (stereo not drawn) [Example 51], for which the “enhancement of vasoconstriction inhibition (vasorelaxation) with respect to beraprost” value in assay [1] is “an enhancement of vasoconstriction inhibition (vasorelaxation) with respect to the IP agonist beraprost was recognized”. Besides, the left shift value in assay [2] was 4.3 µM; in assay [3], 3.9 µM.

The record behind these values is patent publication US20160368895A1, “PULMONARY HYPERTENSION TREATING AGENT” (THE UNIVERSITY OF TOKYO, priority 2013, published 2016).
